# Where two headings read alike, the source gives them in different places.
# Tests used:
# [1] = CF transport assay in EYPC⊃CF vesicles (carrier activity); format: biochemical; set-up: key to Carrier activity: ‐ – ‐: No detectable activity at pH 5.5 and 7.4; conditions: for Carrier activity: EYPC vesicles, pH 5.5 and 7.4, cargos heptaArg, protamine, polyArg ([AlMo6]: heptaArg and protamine only); for Transport activity (in words): EYPC⊃CF vesicles, neutral pH, carrier then cargo; for EC50: 5% error (SD)
# Text: The capability of POMs to act as membrane carriers was explored first in large unilamellar vesicles (LUVs) loaded with carboxyfluorescein (CF).^[ [54], [55] ^] We selected […] representative cationic peptides, heptaarginine (heptaArg), heptalysine (heptaLys), protamine, and polyarginine (polyArg), as test cargos. Inside the LUVs, the CF dye was encapsulated at self‐quenching concentrations. With a suitable carrier, heptaArg can be taken up into the vesicles, bind with entrapped CF, and shuttle back to the exterior, diluting the previously quenched CF, and thereby restoring its fluorescence (Figure 1c). In the time‐resolved fluorescence experiments (Figure 2a), to test whether a particular POM acts as molecular carrier, the CF emission was continuously monitored during the addition of the inorganic carrier (t = 60 s) and after injection of the impermeable selected cargo (t = 120 s). Toward the end of the experiment (t = 600 s), the surfactant Triton X‐100 was added to release all the entrapped CF and allow normalization of the intensity data.
# A thin lipid film was prepared by evaporating a lipid solution of EYPC (egg yolk phosphatidylcholine, 25 mg) in CHCl3 (1 mL) with a stream of nitrogen and then dried in vacuo overnight. The dry film was rehydrated with 1 mL buffer (50 mM CF, 10 mM Hepes, pH 7.4 or 50 mM CF, 10 mM Tris, pH 7.4) for 30 min at room temperature, subjected to freeze–thaw cycles (7 times) and extrusions (15 times) through a polycarbonate membrane (pore size 100 nm). Extravesicular components were removed by size exclusion chromatography (NAP‐25 column Sephadex G‐25 DNA grade) with 10 mM Hepes, 107 mM NaCl, pH 7.4, or 10 mM Hepes, 107 mM NaCl, pH 7.4. Phospholipid concentration was calculated by the Stewart assay.^[ [81] ^]
# Acidic vesicles were prepared analogously but the rehydration and elution buffer were 50 mM CF, 10 mM Mes, pH 5.5 and 10 mM Mes, 107 mM NaCl, pH 5.5. respectively.
# Vesicles stock solutions (5–10 µL) were diluted with the corresponding buffer in a disposable plastic cuvette and gently stirred (total volume 2000 µL, final lipid concentration 13 µM). Carboxyfluorescein fluorescence was monitored at λ em = 517 nm (λ ex = 492 nm) as a function of time after addition of POMs at 60 s, analyte at 120 s and Triton X‐100 (24 µL 1.2% wt/vol) at 600 s to lyse the vesicles, for calibration. Fluorescence intensities were normalized to fractional emission as (1) It=It−I0/I∞−I0 where I 0 = I t before POM addition and […] after lysis. For Hill analysis, I t before lysis was defined as transport activity, Y, and plotted against POM concentration, c, and fitted to the Hill Equation (2), to afford the activity in absence of POM, Y 0, the maximal activity, Y max, the concentration needed to achieve 50% of maximal activity, EC 50, and the Hill coefficient, n (2) Y=Y0+Ymax−Y0/1+EC50/c^n
# In the transport measurements, where different carriers (POMs) are tested with the same cargo, the activator efficiency (E) is determined by their capacity to transport the impermeable cargo to the intravesicular region and is characterized by Y max, its maximal activity, and EC 50, the effective activator concentration. An ideal carrier reaches high Y max at low EC 50. To count both factors, the activator efficiency is defined as (3) E=YmaxpEC50/f were pEC 50 is the negative logarithm of the EC 50, and f a scaling factor, which was set to 20.6 to calibrate the highest (previously known) activation efficiency, E, as 10.^[ [55] ^]
# [2] = Membrane disruption of liposomes by POM alone (CF fluorescence, DLS); format: biochemical; conditions: higher than 100 µM POM, 10 mM Tris, 107 mM NaCl, pH 7.4
# Protocol: It should be noted that the addition of POMs alone (without cargo) retained the stability of the liposomes in the studied concentration range (up to 100 µM), that is, neither an increase in CF fluorescence nor changes in size distribution as obtained by dynamic light scattering experiments (DLS, see Figure S4, Supporting Information) were observed, which would have signaled membrane rupture. These negative controls allowed us to proceed to the carrier experiments, with added cargo.
# DLS experiments of the vesicles were carried out on a Malvern Instruments DTS Nano 2000 Zeta‐Sizer. A POM concentration of 100 µM was chosen as default, since this is the highest concentration at which membrane transport was evaluated. The cargo concentration was set to be same as in the transport experiments, namely 10 µM for heptaarginine, 1 µM for protamine, and 0.1 µM for polyarginine. Note that the POMs themselves, with a size of ≈1 nm, fall below the detection limit (>10 nm) of the DLS instrument.
# Figure S3. Transport activity, Y, for polyarginine (0.1 µM) in EYPC[…]CF liposomes as a function of the concentration of the different evaluated POMs. Solid lines correspond to the resulting fit with the Hill equation. Blue squares are data obtained at neutral pH, and red stars data obtained at acidic pH.
# Table S4. Membrane transport parametersa) of active POMs at neutralb) and acidicc) pH.
# HeptaArgd) Protaminee) PolyArgf) carrier pH Hydrolysis/Stability
# Ymax [%]g) EC50h) [µM] E i) Ymax [%] EC50 [µM] E Ymax [%] EC50 [µM] E […]
# Figure S5. Transport kinetics (left pannels), dose response curves (middle pannels) for cargo transport, and size distribution (by DLS, right pannels) for [PW12]3‒ (top) and [SiW12]4‒ (bottom), measured with EYPC[…]CF liposomes at pH 7.4, but preserving the POM solution at pH 1.2 before addition. As shown in panel a, the addition of [PW12]3‒ alone gave a fluorescence increase, pointing to membrane disruption, which was confirmed by DLS (panel c). […]
# [3] = Hydrolysis/stability of POMs in buffer by NMR; conditions: for Stability at pH 7.5 by NMR (in words): Hepes or Tris-HCl pH 7.5, 27Al, 31P or 183W NMR, fresh and aged 1-3 days; for Hydrolysis/stability pH 7.5: 10 mM Hepes or Tris, pH 7.4; for Hydrolysis/stability pH 7.5 / Hydrolysis/stability pH 5.5: 107 mM NaCl, NMR, long-term (24 h and longer); for Hydrolysis/stability pH 5.5: 10 mM Mes
# Protocol: First, their long‐term (24 h and longer) fate in aqueous solution (slightly acidic and neutral) was investigated by applying the active NMR nuclei in their composition (Table S9 and Figures S24–S37, see the Supporting Information for details).
# NMR-spectroscopic characterization of identity and stability
# NMR spectroscopy for all POMs tested was performed under experimental conditions.
# [4] = tested on: methicillin-resistant Staphylococcus aureus (SR3605, ATCC43300); conditions: in combination with β-Lactamase, Mueller-Hinton broth, pH 7.4, 34 °C, cited from earlier work
# Text: page 4: 2. Literature survey Table S1. Survey of experimentally proven membrane penetration of POMs according to a search in Scopus (“polyoxometalate” and “membrane penetration”) up to the submission date of the manuscript.
# CHO‐K1 cells = assay: FITC-Arg8 uptake in live cells, confocal imaging; format: cell-based, Chinese hamster; conditions: 30 min, 37 °C; for FITC-Arg8 uptake promoted by carrier: carrier 5 µM, 5 min, then FITC-Arg8 5 µM, four biological replicates
# Protocol: CHO‐K1 cells were plated into µ‐Slide 8‐well plates (ibidi) at a density of ≈1 × 10^5 cells per well (per 1 mL) and incubated for 24 h in Ham's F‐12 medium containing 10% v/v fetal bovine serum and 1.0% penicillin streptomycin at 37 °C in a 5% CO2 atmosphere. The cells were washed twice with Hank's buffer, incubated for 5 min at 37 °C in Ham's F‐12 medium without phenol red with carrier (5 µM), and subsequently in Ham's F‐12 medium without phenol red with 5 µM FITC‐Arg8 for 30 min at 37 °C. Cells in the absence of carrier were used as control. The cells were washed twice with Hank's buffer containing 100 µg mL^−1 heparin and then washed twice with Ham's F‐12 medium without phenol red. The nuclear staining was performed by incubating the cells with 10 µg mL^−1 Hoechst 33 342 (bis‐benzimide H33342 trihydrochloride) for 10 min at 37 °C. Cells were directly imaged as stated above.
# [5] = CF assay, EYPC LUVs, 0.1 µM polyArg, pH 7.4, read-out: PolyArg EC 50
# [6] = CF assay, EYPC LUVs, 0.1 µM polyArg, pH 7.4, ±2% error (SD)
# [7] = EYPC LUVs, 0.1 µM polyArg, pH 7.4, f = 20.6, 10% error
compound,measurement,setting,value
K4[α‐Si^IVW^VI 12O40]·14H2O [[SiW12]^4‒],Carrier activity,[1],"‐ – ‐ ^k) , ^m)"
same,Cargo transport with POM solution kept at pH 1.2,"[1]; EYPC⊃CF liposomes at pH 7.4, POM solution preserved at pH 1.2 before addition","showed the desired cargo transport at acidic pH, without membrane disruption"
same,Transport activity (in words),[1],neither an interaction with the membrane nor cargo transport
same,Vesicle lysis at higher concentrations,[2],led to vesicle lysis
same,Stability at pH 7.5 by NMR (in words),[3],[SiIVWVI11O39]8‒ is predominant
Cc1onc(-c2ccccc2)c1C(=O)N[C@@H]1C(=O)N2[C@@H]1SC(C)(C)[C@@H]2C(=O)O [oxacillin],MIC,[4]; ref [8],256 µg/mL
same,MIC,[4]; ref [9],256 µg/mL
(C4H12N)4[α‐HAl^IIIGe^IVW^VI 11O39(H2O)]·11H2O [[AlGeW11]^5‒],Carrier activity,[1],‐ – ‐ ^k)
same,Hydrolysis/stability pH 7.5,[3],Stable
same,Stability at pH 7.5 by NMR (in words),[3],integrity at pH 7.5
"O=C(O)CCCc1ccc2ccc3cccc4ccc1c2c34 [PyBu^‒, pyrenebutyrate, reference compound]",HeptaArg Y max,"[1]; CF assay, EYPC LUVs, 13 µM lipid, 10 µM heptaArg, 10 mM Hepes or Tris, 107 mM NaCl, pH 7.4, 10 min, Hill fit, triplicates, ±2% error (SD)",100%
same,EC50,[1]; [5],12 µM
same,PolyArg Y max,[1]; [6],91%
same,EC50,"[1]; CF assay, EYPC LUVs, 1 µM protamine, pH 7.4, read-out: Protamine EC 50",39 µM
same,Protamine Y max,"[1]; CF assay, EYPC LUVs, 1 µM protamine, pH 7.4, ±2% error (SD)",77%
same,EC50,"[1]; CF assay, EYPC LUVs, 10 µM heptaArg, pH 7.4, carrier concentration for 50% of Ymax, read-out: HeptaArg EC 50",100 µM
same,PolyArg E (activation efficiency),[1]; [7],8.5
same,Protamine E (activation efficiency),"[1]; EYPC LUVs, 1 µM protamine, pH 7.4, f = 20.6, 10% error",5.3
same,HeptaArg E (activation efficiency),"[1]; EYPC LUVs, 10 µM heptaArg, pH 7.4, E = Ymax(pEC50/f), f = 20.6, 10% error",4.8
same,Efficacy when the sequence of addition was inverted,"[1]; heptaarginine 10 µM, cargo before carrier (Figure S6)",significantly reduces its activity
same,FITC-Arg8 uptake promoted by carrier,CHO‐K1 cells,did not achieve efficient uptake
same,Hydrolysis/stability pH 7.5,[3],Stable
same,Hydrolysis/stability pH 5.5,[3],Stable
Na3[Al^III(OH)6Mo^VI 6O18]·2H2O [[AlMo6]^3‒],EC50,[1]; [5],11 µM
same,PolyArg Y max,[1]; [6],33%
same,PolyArg E (activation efficiency),[1]; [7],3.1
same,Carrier activity,[1],‐ – ‐ ^k)
same,Transport activity (in words),[1],"incipient transport activity, but only for polyarginine as cargo"
same,Hydrolysis/stability pH 7.5,[3],Stable
B12Br12 ^2‒ [reference compound],FITC-Arg8 uptake promoted by carrier,CHO‐K1 cells,did not achieve efficient uptake
same,Hydrolysis/stability pH 7.5,[3],Stable
same,Hydrolysis/stability pH 5.5,[3],Stable
5(6)‐fluorescein isothiocyanate‐labelled octaarginine [FITC‐Arg8],Uptake of FITC-Arg8 without carrier,CHO‐K1 cells; FITC-Arg8 5 µM,minor punctate fluorescence
Na5[α‐Al^IIIW^VI 12O40]·12H2O [[AlW12]^5‒],Carrier activity,[1],‐ – ‐ ^k)
same,Hydrolysis/stability pH 7.5,[3],Stable
same,Stability at pH 7.5 by NMR (in words),[3],stable at pH 7.5
